From patent publication US8178534B2, “cMET inhibitors” (Takeda Pharmaceutical Company Limited, priority 2008, dated 2012)
pEC50, pIC50: −log10 of the molar value.

What was measured:
[1] = target: T1, cMET enzyme (amino acids 1023-1360) (Homo sapiens, UniProt P08581); assay: Determination of inhibition of cMET (capillary electrophoresis, phosphorylated peptide product); type: biochemical; conditions: 1.2 nM cMET, 50 μM ATP, 2 μM FL-2 peptide, 2 hours room temperature
T1 construct: The cMET enzyme (amino acids 1023-1360) nominally at 24 μM was held at −80° C. until use; His tag (N, cleaved yes); made in house; host or cells: Sf9 cells

MKN45 = assay: Inhibition of cell viability (MTS), MKN45; type: cell-based; conditions: Homo sapiens, MKN-45, 96 h, MKN45 cells, 96 hours incubation
In short: (§1)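 Cells seeded at 2,000-7,500/well, attached ~24 h, then treated in duplicate with 1:2.5 serial dilutions at 0.5% final DMSO. Viability by MTS; EC50 from non-linear fit after background correction and normalisation to DMSO. MKN45 and EBC1 are cMET-dependent; A549 serves as negative control.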

EBC1 = assay: Inhibition of cell viability (MTS), EBC1; type: cell-based; conditions: Homo sapiens, EBC-1, 96 h, EBC1 cells, 96 hours incubation
In short: as §1

A549 = assay: Inhibition of cell viability (MTS), A549 (negative control line); type: cell-based; conditions: Homo sapiens, A549, 96 h, A549 cells (negative control), 96 hours incubation
In short: as §1

T1 sequence (P08581 1023-1360): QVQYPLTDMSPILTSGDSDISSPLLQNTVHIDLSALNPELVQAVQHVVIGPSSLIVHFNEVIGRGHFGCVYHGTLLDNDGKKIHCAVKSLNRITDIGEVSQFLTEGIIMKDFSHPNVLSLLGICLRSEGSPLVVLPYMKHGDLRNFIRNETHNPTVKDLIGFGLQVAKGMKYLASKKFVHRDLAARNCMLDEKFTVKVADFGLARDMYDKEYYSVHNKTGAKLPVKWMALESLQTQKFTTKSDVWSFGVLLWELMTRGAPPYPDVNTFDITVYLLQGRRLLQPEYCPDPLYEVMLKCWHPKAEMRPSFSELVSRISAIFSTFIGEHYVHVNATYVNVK

SMILES	pIC50 [1]	pEC50 (MKN45)	pEC50 (EBC1)	pEC50 (A549)
N#Cc1ccc(-c2ccc3nnc(C(F)(F)c4ccc5nc(NC(=O)C6CC6)cn5n4)n3c2)cc1 [Compound 83, N-(6-((6-(4-cyanophenyl)-[1,2,4]triazolo[4,3-a]pyridin-3-yl)difluoromethyl)imidazo[1,2-b]pyridazin-2-yl)cyclopropanecarboxamide]	> 7.52	> 7.52	> 7.52	< 4.30
Cc1csc(-c2ccc3nnc(C(F)(F)c4ccc5nc(NC(=O)C6CC6)cn5n4)n3c2)c1 [Compound 84, N-(6-(difluoro(6-(4-methylthiophen-2-yl)-[1,2,4]triazolo[4,3-a]pyridin-3-yl)methyl)imidazo[1,2-b]pyridazin-2-yl)cyclopropanecarboxamide]	> 7.52	> 7.52	> 7.52	< 4.30
CS(=O)(=O)c1ccc(-c2ccc3nnc(C(F)(F)c4ccc5nc(NC(=O)C6CC6)cn5n4)n3c2)cc1 [Compound 85, N-(6-(difluoro(6-(4-(methylsulfonyl)phenyl)-[1,2,4]triazolo[4,3-a]pyridin-3-yl)methyl)imidazo[1,2-b]pyridazin-2-yl)cyclopropanecarboxamide]	> 7.52	> 7.52	> 7.52	< 4.30
COc1ccc(-c2ccc3nnc(C(F)(F)c4ccc5nc(NC(=O)C6CC6)cn5n4)n3c2)cn1 [Compound 86, N-(6-(difluoro(6-(6-methoxypyridin-3-yl)-[1,2,4]triazolo[4,3-a]pyridin-3-yl)methyl)imidazo[1,2-b]pyridazin-2-yl)cyclopropanecarboxamide]	7.23 to 7.52	> 7.52	> 7.52	< 4.30
O=C(Nc1cn2nc(C(F)(F)c3nnc4ccc(-c5cncnc5)cn34)ccc2n1)C1CC1 [Compound 87, N-(6-(difluoro(6-(pyrimidin-5-yl)-[1,2,4]triazolo[4,3-a]pyridin-3-yl)methyl)imidazo[1,2-b]pyridazin-2-yl)cyclopropanecarboxamide]	6.60 to 7.00	7.23 to 7.52	7.23 to 7.52	< 4.30
CS(=O)(=O)c1cccc(-c2ccc3nnc(C(F)(F)c4ccc5nc(NC(=O)C6CC6)cn5n4)n3c2)c1 [Compound 88, N-(6-(difluoro(6-(3-(methylsulfonyl)phenyl)-[1,2,4]triazolo[4,3-a]pyridin-3-yl)methyl)imidazo[1,2-b]pyridazin-2-yl)cyclopropanecarboxamide]	> 7.52	> 7.52	> 7.52	< 4.30
NC(=O)c1cccc(-c2ccc3nnc(C(F)(F)c4ccc5nc(NC(=O)C6CC6)cn5n4)n3c2)c1 [Compound 90, 3-(3-((2-(cyclopropanecarboxamido)imidazo[1,2-b]pyridazin-6-yl)difluoromethyl)-[1,2,4]triazolo[4,3-a]pyridin-6-yl)benzamide]	> 7.52	> 7.52	> 7.52	< 4.30
COCCOc1ccc(-c2ccc3nnc(C(F)(F)c4ccc5nc(NC(=O)C6CC6)cn5n4)n3c2)cc1 [Compound 91, N-(6-(difluoro(6-(4-(2-methoxyethoxy)phenyl)-[1,2,4]triazolo[4,3-a]pyridin-3-yl)methyl)imidazo[1,2-b]pyridazin-2-yl)cyclopropanecarboxamide]	> 7.52	> 7.52	> 7.52	< 4.30
O=C(Nc1cn2nc(C(F)(F)c3nnc4ccc(-c5cn[nH]c5)cn34)ccc2n1)C1CC1 [Compound 92, N-(6-((6-(1H-pyrazol-4-yl)-[1,2,4]triazolo[4,3-a]pyridin-3-yl)difluoromethyl)imidazo[1,2-b]pyridazin-2-yl)cyclopropanecarboxamide]	> 7.52	> 7.52	> 7.52	< 4.30
